Columns and labels:
Amyloid β-protein = assay: Screening of the degree of β-structure recognition (fluorescence, in the presence of Congo red); type: binding; conditions: test compound 5 µM, amyloid β-protein 5 µM, Congo red 0.1 µM, phosphate buffer pH 7.4
senile plaques = molecular target: T1, senile plaques (Homo sapiens, UniProt P05067); assay: Staining of senile plaques and diffuse plaques in brain sections, compared with thioflavin S, BSB or anti-Aβ antibody 6F/3D immunostaining; type: binding, patient with Alzheimer's disease; conditions: 100 µM compound in 50% ethanol; for staining properties in sections of the brain of a patient with Alzheimer's disease: compared with thioflavin S (and BSB) on adjacent sections; for staining properties compared with immunostaining of anti-Aβ antibody 6F/3D: adjacent sections immunostained with 6F/3D
T1 construct: The former has, as the main component, amyloid β-protein (Aβ protein) taking β-sheet structures; from tissue; host or cells: paraffin-embedded temporal lobe or hippocampus sections of an Alzheimer's disease patient's brain (Fukushimura Hospital)
T1 sequence (P05067 672-713 limits assumed): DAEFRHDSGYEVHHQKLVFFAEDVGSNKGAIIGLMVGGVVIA
Excerpt: The following explanation is made about testing of staining properties of the compounds of the present invention on brain sections of an Alzheimer's disease patient. • (1) Temporal lobe or hippocampus specimens of the brain of a patient who had been definitely diagnosed pathologically as Alzheimer's disease and of a normal aged individual were used. These specimens were provided from Fukushimura Hospital, our joint research facility, with the consent to their use for research purpose received from the bereaved family of the patient (BF Research Laboratories Institutional Ethics Board Permission No. RS-99-02). • (2) The brain tissues embedded in paraffin were sliced 6 or 8 µm thick, extended on slides, and dried. The paraffin-embedded brain sections were deparaffined by washing sequentially with xylene (10 minutes, twice), 100% ethanol (15 minutes, twice), 95% ethanol (15 minutes, twice), and a stream of water (10 minutes). • (3) Pre-treatment for staining with compounds of the present invention involved treating the sections for eliminating self-fluorescence due to lipofuscin. First, the deparaffined sections were immersed into a 10% formalin solution for 60 minutes and washed with PBS for 5 minutes, followed by immersion into a 0.25% solution of KMnO4 for 90 minutes. After washing twice with PBS for 2 minutes each, the sections were immersed into a solution of 0.1% K2S2O5/oxalic acid for about 30 seconds each, and then washed three times with PBS for 2 minutes each. • (4) About 150 µl of a 100 µM solution of a compound of the present invention dissolved in 50% ethanol was added dropwise onto the sections and allowed the reaction to be carried out for 10 minutes. The sections were dipped into tap water five times, and then 50% ethanol three to five times, followed by immediate classification. After that, the sections were immersed into PBS for 60 minutes, enclosed with Fluor Save Reagent (Calbiochem), and examined under a fluorescent microscope (Nikon, Eclips E800). Pictures were taken using a digital camera (Plaroid PDMCII).
Immunostaining was carried out as follows. • (a) Procedures for immunostaining amyloid β-protein: • (1) After the sections were deparaffined, the sections were washed twice in distilled water for 2 minutes each, and tissues were marked with an Immunopen. About 150 µl of formic acid was added dropwise and allowed to stand at room temperature for 5 minutes. The sections were washed with tap water for 5 minutes and immersed into cold PBS-Tween 20 for 2 minutes, and then about 150 µl of a 0.05% trypsin solution was added dropwise and allowed the reaction to be carried out at 37°C for 15 minutes. • (2) In an ice bath, the sections were washed twice with cold PBS-Tween 20 for 5 minutes each, and two drops of blocking serum were added and allowed the reaction to be carried out at 37°C for 15 minutes. Excess water was removed, and about 150 µl of 6F/3D, an antibody specific to amyloid β-protein (DAKO; diluted 1:50) was added dropwise and allowed the reaction to be carried out at 37°C for 1 hour. • (3) Further, after washing five times with cold PBS-Tween 20 for 2 minutes each, two drops of a solution of goat antimouse IgG (H+L) conjugated to biotin were added and allowed the reaction to be carried out at 37°C for 1 hour. After that, the sections were washed three times with cold PBS-Tween 20 for 2 minutes each, and two drops of ABS solution (a streptavidin-biotin-peroxidase complex solution) were added and allowed to stand for 30 minutes. The sections were again washed three times with cold PBS-Tween 20 for 2 minutes each, and about 150 µl of DAB solution (prepared by dissolving 10 mg of DAB in 20 ml of 0.05 mol/l Tris-HCl buffer and adding 100 µl of 3% hydrogen peroxide immediately before use) were added and allowed the color to be developed sufficiently. Then, the sections were washed with distilled water for 1 minute to stop the reaction, enclosed, and examined under a microscope.

[1] = Blood-brain barrier permeability after intravenous administration; conditions: for Plasma: mice, content in plasma two minutes after intravenous administration
Experimental: (B) Testing of blood-brain barrier permeability Measurements of blood-brain barrier permeability were made according to the following procedures. Compounds of the present invention were intravenously administered to mice to determine their in vivo blood-brain barrier permeability. • (1) Mice utilized Slc:ICR weighing 30-40 g (7 weeks old, n=3) (Nippon SLC). • (2) A test compound was dissolved in a mixture of 1N HCl, polyethylene glycol 400, and DMSO, or in DMSO or ethyl alcohol, and then diluted with purified water, and injected via tail vein. Two minutes after administration, the mice, under ether anesthesia, were subjected to taking blood from the abdominal aorta with a heparin-treated syringe and removing the brain. • (3) After taking blood, blood samples were centrifuged at 14,000 rpm at 4°C for 10 minutes, and their supernatants were kept at -80°C as plasma sample. The brain (including cerebellum) was kept at -80°C after its removal. • (4) The plasma sample, when used, was thawed, diluted with purified water, and then applied to a conditioned C18 solid-phase extraction cartridge (bond elute C18, 200 mg, Varian), followed by elution with methyl alcohol. Alternatively, after thawing the plasma sample, a diethyl ether/cyclohexane mixture was added, and the mixture was shaken, and then centrifuged to separate an oil layer. • (5) The brain material, when used, was subjected to measuring its wet weight with the brain remaining frozen, and saline was added to the brain for homogenization. The homogenate was centrifuged for 10 minutes, and the supernatant was applied to a conditioned C18 solid-phase extraction cartridge and eluted with methyl alcohol. Alternatively, after measuring the wet weight of the frozen brain, a diethyl ether/cyclohexane mixture was added to the brain, and the mixture was homogenized, shaken, and then centrifuged to separate an oil layer. • (6) The absorbance and fluorescence were detected employing high performance liquid chromatography. • (7) For each of the plasma and brain, the content of the test compound in the plasma or brain (%ID (injected dose)/ml or g) was determined, relative to the administered dose.

[2] = Acute toxicity testing, intravenous administration; type: in vivo; conditions: male Crj:CD1 mice, via tail vein, observed up to 7 days; for MTD at 168 h: mouse, in vivo, iv, read-out: Maximum Tolerated Dose (mg/kg, intravenous administration)
Experimental: The following explanation is made of testing methods for properties of the compounds of the present invention. (A) Testing of acute toxicity Acute toxicity of the inventive compounds was determined employing mice by intravenous administration. Male Crj:CD1 mice were used and divided into groups of 4 mice, with an average weight of each group of 31-32 g. […] Up to 7 days after administration, observations were made.

Row | Molecule | Degree of β-structure recognition (%) (Amyloid β-protein) | staining properties in sections of the brain of a patient with Alzheimer's disease (senile plaques) | also measured
1 | 2-[2-(2-dimethylamino-1,3,4-thiazol-5-yl)ethenyl]benzoxazole [BF-237] | 76.5 |  | 
2 | Cc1ccc2c(c1)sc(-c1ccc(N(C)C)cc1)[n+]2C [Thioflavin T, reference compound] | 61.8 |  | 
3 | Cc1nc(/C=C/C=C/c2cnc(N(C)C)o2)oc1C [BF-229, 2-[4-(2-dimethylaminooxazol-5-yl)-1,3-butadienyl]-4,5-dimethyloxazole] | 70.7 |  | 
4 | Cc1ccc(S(=O)(=O)OCCOc2ccc3nc(/C=C/c4cnc(N(C)C)s4)sc3c2)cc1 [BF-251, 2-[2-(2-dimethylaminothiazol-5-yl)ethenyl]-6-[2-(4-tosyloxy)ethoxy]benzothiazole] | 37.5 |  | 
5 | CN(C)c1nnc(/C=C/c2nc3ccccc3o2)o1 [BF-238, 2-[2-(2-dimethylamino-1,3,4-oxazol-5-yl)ethenyl]benzoxazole] | 52.3 |  | 
6 | CNc1ccc(/C=C/C=C/c2nc3ccccc3s2)cc1 [BF-187, 2-[[4-(4-methylamino)phenyl]-1,3-butadienyl)benzothiazole] | 63.3 | stains senile plaques | Plasma [1]: 1.3 %ID/g or ml
7 | Nc1ncc(-c2ccc3ccccc3n2)s1 [BF-240, 2-(2-aminothiazol-5-yl)quinoline] | 49.9 |  | 
8 | CNc1ncc(/C=C/c2ccc(O)cc2)s1 [BF-235, 5-(4-hydroxystyryl)-2-methylaminothiazole] | 65.5 |  | 
9 | CN(C)c1ncc(/C=C/c2nc3ccccc3s2)s1 [BF-196, 2-[2-(2-dimethylaminothiazol-5-yl)ethenyl]benzothiazole] | 53.5 | mainly stains senile plaques | staining properties compared with immunostaining of anti-Aβ antibody 6F/3D (senile plaques): stains senile plaques; Plasma [1]: 1.8 %ID/g or ml; tissue uptake at 2 min ([1]; mouse, brain, iv): 19 %ID/g
10 | CN(C)c1ncc(-c2nc3ccccc3o2)s1 [BF-225, 2-(2-dimethylaminothiazol-5-yl)benzoxazole] | 87.5 |  | 
11 | Nc1ccc(/C=C/C=C/c2nc3ccc(O)cc3o2)c(O)c1 [BF-201] | 82.0 | stains senile plaques | staining properties compared with immunostaining of anti-Aβ antibody 6F/3D (senile plaques): stains senile plaques
12 | Nc1cnc(-c2ccc3ccccc3n2)o1 [BF-255, 2-(5-アミノオキサゾール-2-イル)キノリン] | 65.8 |  | 
13 | CCC[CH2][Sn]([CH2]CCC)([CH2]CCC)[c]1ccc2nc(C=Cc3cnc(N(C)C)s3)oc2c1 [BF-246, 6-tri(n-butyl)stannyl-2-[2-(2-dimethylaminothiazol-5-yl)ethenyl]benzoxazole] | 24.6 |  | 
14 | CN(C)c1cnc(/C=C/c2nc3ccccc3s2)o1 [BF-250, 2-[2-(5-dimethylaminooxazol-2-yl)ethenyl]benzothiazole] | 43.1 |  | 
15 | CN(C)c1ncc(/C=C/C=C/c2nc3ccccc3[nH]2)s1 [BF-231, 2-[4-(2-dimethylaminothiazol-5-yl)-1,3-butadienyl]benzoimidazole] | 47.2 | stains senile plaques | Maximum Tolerated Dose (mg/kg, intravenous administration) [2]: ≧ 10 mg/kg
16 | CN(C)c1ncc(/C=C/c2nc3ccccc3o2)o1 [BF-230, 2-[2-(2-dimethylaminooxazol-5-yl)ethenyl]benzoxazole] | 74.0 |  | MTD at 168 h [2]: ≥ 10 mg/kg
17 | CNc1ccc(/C=C/C=C/c2nc3ccccc3[nH]2)cc1 [BF-188, 2-[[4-(4-methylamino)phenyl]-1,3-butadienyl]benzoimidazole] | 68.9 | stains senile plaques | Plasma [1]: 1.7 %ID/g or ml
18 | Cc1ccc(S(=O)(=O)OCCOc2ccc3nc(/C=C/c4cnc(N(C)C)s4)oc3c2)cc1 [BF-226, 2-[2-(2-dimethylaminothiazol-5-yl)ethenyl]-6-[2-(4-tosyloxy)ethoxy]benzoxazole] | 43.3 |  | 
19 | CN(C)c1ncc(/C=C/c2nc3ccc(OCCF)cc3s2)s1 [BF-252, 2-[2-(2-dimethylaminothiazol-5-yl)ethenyl]-6-[2-(fluoro)ethoxy]benzothiazole] | 47.0 |  | 
20 | thioflavin S [reference compound] |  | stains both senile plaques and neurofibrillary tangles | 
21 | CN(C)c1ncc(/C=C/c2nc3ccc(I)cc3o2)s1 [BF-247, 6-(iodo)-2-[2-(2-dimethylaminothiazol-5-yl)ethenyl]benzoxazole] | 43.7 |  | 
22 | CNc1ccc(/C=C/C=C/c2nc3ccccc3o2)cc1 [BF-185, 2-[[4-(4-methylamino)phenyl]-1,3-butadienyl)benzoxazole] | 82.7 | mainly stains senile plaques | staining properties compared with immunostaining of anti-Aβ antibody 6F/3D (senile plaques): stains senile plaques (Fig. 3, wedge-shaped arrowheads) and diffuse plaques; Plasma [1]: 1.0 %ID/g or ml
23 | Cc1nc(/C=C/C=C/c2ccc(N(C)C)cc2)oc1C [BF-228, 2-[4-(4-dimethylaminophenyl)-1,3-butadienyl]-4,5-dimethyloxazole] | 83.8 |  | MTD at 168 h [2]: ≥ 10 mg/kg
24 | CN(C)c1ncc(-c2ccc3ccccc3n2)o1 [BF-221, 2-(2-dimethylaminooxazol-5-yl)quinoline] | 73.8 |  | 
25 | O=C(O)c1cc(/C=C/c2ccc(/C=C/c3ccc(O)c(C(=O)O)c3)c(Br)c2)ccc1O [BSB, (trans, trans)-1-bromo-2,5-bis-(3-hydroxycarbonyl-4-hydroxy)styrylbenzen, reference compound] |  | stains both senile plaques and neurofibrillary tangles | 
26 | CN(C)c1ncc(/C=C/c2nc3ccccc3[nH]2)s1 [BF-248, 2-[2-(2-dimethylaminothiazol-5-yl)ethenyl]benzimidazole] | 40.1 |  | 

From patent EP1655287A1, “PROBE FOR DISEASES WITH AMYLOID ACCUMULATION, AMYLOID-STAINING AGENT, REMEDY AND PREVENTIVE FOR DISEASES WITH AMYLOID ACCUMULATION AND DIAGNOSTIC PROBE AND STAINING AGENT FOR NEUROFIBRILLARY CHANGE” (priority 2003, dated 2005)
